Measurements as given in patent US6696280B2, “Candida geranylgeranyl-protein transferase polypetide, compositions and methods related thereto” (GPC Biotech, Inc., priority 1996, dated 2004).

Tests used:
PKC1 [1] = biological target: T1, PKC1 (Saccharomyces cerevisiae, UniProt P24583); assay: PKC1 protein kinase assay with synthetic Bck1 peptide; type: biochemical; conditions: for Stimulation of PKC1 by cofactor: in the presence of GTP-bound GST-Rho1
T1 construct: made in house; host or cells: PKC1-HA immunoprecipitated from S. cerevisiae extract; GST-Rho1 from baculovirus-infected Sf9 cells
Experimental: (§1) FIGS. 4A-4B. Rho1 allows cofactors to activate PKC1. FIG. 4A. Phosphorylation of synthetic Bck1 peptide by PKC1^HA immunoprecipitated from 50 μg of soluble yeast cell extract protein. Recombinant GST-Rho1 or GST-Cdc42 (1 μg) was preloaded with the indicated guanine nucleotide. Cofactors (80 μg/ml PS, 8 μg/ml DAG, and 100 μM CaCl2) were added to the reaction where indicated. Lanes 1 and 2 are control reactions with no GTPase. Mean and standard error for three experiments is shown. FIG. 4B. PS alone is sufficient to stimulate PKC1 fully in the presence of Rho1. Phosphorylation of Bck1 peptide by PKC1^HA in the presence of GTPγS-bound GST-Rho1 and the indicated cofactors. Conditions were as in FIG. 4A, except for PMA (16 ng/ml). Concentrations of PS as low as 8 μg/ml fully activated PKC1 (data not shown).
(§2) Yeast extract preparation, immunoprecipitation, immunodetection and protein kinase assays of Mpk1^HA were conducted as described previously (4). Preparation of cell extracts and immunoprecipitations for experiments with ^HARho1 were carried out as in (4) with some modifications. Lysis buffer without ρ-nitrophenyl phosphate and with 1% NP-40 was used. The extract (700 μg protein) was precleared by incubation with 20 μl of a 50% suspension of protein A-sepharose for 1 h prior to immunoprecipitation to eliminate non-specific binding of proteins to immunecomplexes. Beads were boiled in SDS-PAGE sample buffer, and samples were applied to 7.5% (for PKC1 blots) or 15% (for ^HARho1 blots) SDS-PAGE gels. For PKC1 kinase assays, all as described previously (5), except for the addition of recombinant GTPases (see below). A synthetic peptide corresponding to the sequence surrounding Ser939 of Bck1, a phosphorylation site for PKC 1, was used as substrate in PKC 1 kinase assays (5).
(§3) Recombinant Rho1 and Cdc42. Recombinant GST-Rho 1 and GST-Cdc42 were expressed and purified from baculovirus-infected insect (Sf9) cells, as described (23). For in vitro association with PKC1^HA, GST-Rho1 was not eluted from the glutathione agarose beads used for purification. GST-Rho1-bound beads were incubated with cell extract in immunoprecipitation buffer (4) for 5 h at 4° C., followed by 3 washes with this buffer. For use in PKC1^HA protein kinase assays, GST-Rho1 and GST-Cdc42 were eluted from the beads with reduced glutathione.
T1 sequence (P06780 2-206, one chain of several): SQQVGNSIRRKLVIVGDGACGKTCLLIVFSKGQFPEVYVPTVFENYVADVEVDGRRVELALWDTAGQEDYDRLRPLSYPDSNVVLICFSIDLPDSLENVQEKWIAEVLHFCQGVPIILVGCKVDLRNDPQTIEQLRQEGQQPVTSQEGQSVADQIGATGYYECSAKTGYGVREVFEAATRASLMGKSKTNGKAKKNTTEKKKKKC

[2] = test system: rho1 mutant strains YOC752 (rho1-2), YOC729 (rho1-3), YOC755 (rho1-5); assay: Drug sensitivity of conditional rho1 mutants; type: cell-based, Saccharomyces cerevisiae; conditions: 23° C.
1,3-β-glucan synthase = assay: Reconstitution of GS activity in rho1-3 membranes; type: biochemical, Saccharomyces cerevisiae; conditions: 37° C., 1 μg recombinant GTPase, 50 μM GTPγS
Experimental: FIGS. 6A-6C. GS activity from rho1 mutants (See reference of Example 3). FIG. 6A. GS activity is thermolabile in rho1^ts mutants. Crude extracts were made from cells growing at room temperature, and assayed for GS activity at the indicated temperatures in the presence of 50 μM GTPγS. FIG. 6B. Reconstitution of GS activity in rho 1-3 membranes with recombinant Rho1. GS activity in rho1-3 membrane fractions was measured at 37° C. in the presence of 1 μg of the indicated recombinant GTPase and 50 μM GTPγS (19). FIG. 6C. Reconstituted GS activity requires GTP. GS activity in wild-type membranes or rho1-3 membranes complemented with 1 μg of GST-Rho1 was measured at 37° C. in the presence of the indicated guanine nucleotide (20 μM). Results are expressed as percent activity relative to GTPγS.
18. Crude yeast extracts were prepared as described [Y. Kamada et al., (1995) Genes Dev. 9:1559], and stored at −80° C. in lysis buffer supplemented with 33% glycerol. Membrane fractions, where indicated, were obtained from crude extracts and 1,3-β-glucan synthase (GS) activity was measured as described in (2) with the following modifications: UDP-[^3H]glucose was used as the substrate and α-amylase (1 U/40 μl) was added to reaction mixtures to eliminate the contribution of [^3H]glucose incorporation into glycogen. For all GS assays, the mean and standard error for four experiments is shown.
19. […]

PKC1 [3] = biological target: T2, PKC1 (Saccharomyces cerevisiae, UniProt P24583); assay: PKC1 protein kinase assay with synthetic Bck1 peptide; type: biochemical; conditions: with or without cofactors PS, DAG, Ca2+
T2 construct: made in house; host or cells: PKC1-HA immunoprecipitated from S. cerevisiae extract; GST-Rho1 from baculovirus-infected Sf9 cells
T2 sequence (P24583 1-1151): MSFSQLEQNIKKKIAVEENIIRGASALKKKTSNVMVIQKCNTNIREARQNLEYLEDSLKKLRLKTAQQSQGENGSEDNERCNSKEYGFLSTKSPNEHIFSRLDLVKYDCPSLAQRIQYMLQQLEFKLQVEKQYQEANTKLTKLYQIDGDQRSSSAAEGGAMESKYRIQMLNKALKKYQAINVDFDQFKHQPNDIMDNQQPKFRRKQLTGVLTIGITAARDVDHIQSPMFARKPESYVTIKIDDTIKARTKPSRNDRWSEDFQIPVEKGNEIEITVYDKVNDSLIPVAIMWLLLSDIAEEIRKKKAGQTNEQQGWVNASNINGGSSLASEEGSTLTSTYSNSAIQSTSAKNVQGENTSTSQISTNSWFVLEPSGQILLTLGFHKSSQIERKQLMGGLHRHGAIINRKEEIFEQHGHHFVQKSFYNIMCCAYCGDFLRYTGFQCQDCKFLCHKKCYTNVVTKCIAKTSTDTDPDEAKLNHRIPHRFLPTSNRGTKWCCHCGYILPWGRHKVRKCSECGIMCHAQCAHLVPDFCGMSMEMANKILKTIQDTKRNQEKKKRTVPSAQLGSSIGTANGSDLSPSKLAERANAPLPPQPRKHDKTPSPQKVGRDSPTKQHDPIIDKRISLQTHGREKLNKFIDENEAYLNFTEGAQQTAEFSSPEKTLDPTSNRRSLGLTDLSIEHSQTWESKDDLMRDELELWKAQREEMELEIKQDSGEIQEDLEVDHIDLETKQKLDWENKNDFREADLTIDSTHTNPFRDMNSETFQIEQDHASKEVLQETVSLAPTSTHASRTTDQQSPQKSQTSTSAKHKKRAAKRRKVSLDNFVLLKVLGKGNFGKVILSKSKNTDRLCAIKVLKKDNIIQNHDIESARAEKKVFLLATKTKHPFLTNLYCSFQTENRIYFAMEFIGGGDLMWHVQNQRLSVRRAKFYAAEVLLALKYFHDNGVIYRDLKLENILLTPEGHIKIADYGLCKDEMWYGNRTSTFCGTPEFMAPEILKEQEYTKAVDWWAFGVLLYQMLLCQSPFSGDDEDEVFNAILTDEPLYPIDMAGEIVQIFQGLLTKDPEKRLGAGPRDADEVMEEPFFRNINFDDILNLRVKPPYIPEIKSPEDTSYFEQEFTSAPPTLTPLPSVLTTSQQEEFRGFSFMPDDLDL
Experimental: as §1, §2, §3

CaGGTase = assay: Km determination, prenylation (TCA precipitation) assay; type: biochemical, Candida
Experimental: Briefly, a DEAE FF column is used for the first chromatographic step. The fractions from the columns in the purification are assayed for both GGTase and Ftase. For GGTase, 0.2 μM CaRho and 0.5 μM GGPP are used. For the FTase assay, 0.5 μM N-ras and 0.5 μM FPP are used. Both reactions are for 20-30 minutes at 37° C. The GGTase activity and FTase activity overlapped on the intial chromatography step, although the FTase activity was slightly shifted to the later fractions. The majority of the GGTase activity is pooled and then run on a SourceQ column, which separates the FTase and GGTase activities.
The fractions from the columns in the purification are being assayed for both GGtase and FTase. For GGTase 0.2 uM CaRho and 0.5 uM GGPP are used. For the FTase assay 0.5 uM N-ras and 0.5 uM FPP are used. Both reactions are for 20-30 minutes at 37°.
The second column (20 mL) Source Q separated the FTase from the GGTase The salt gradient was stretched out for 10 column volumes and 3.5 mL fractions were collected. Fraction 16 and 17 were used for Km and IC50 studies by Marc P.

## [Ca+2] [Ca^2+]
PKC1 [1]
  Stimulation of PKC1 by cofactor: No additional stimulation

## O=S(=O)(O)c1cc(Nc2nc(Nc3ccccc3)nc(N(CCO)CCO)n2)ccc1/C=C/c1ccc(Nc2nc(Nc3ccccc3)nc(N(CCO)CCO)n2)cc1S(=O)(=O)O [Calcofluor white]
[2]
  Sensitivity of rho1 mutants to drug: hypersensitivity

## CCCCCCCCCCCCCC(=O)O[C@@H]1[C@@H](C)[C@@]2(O)[C@@H](C=C(CO)C[C@]3(O)C(=O)C(C)=C[C@@H]23)[C@@H]2C(C)(C)[C@]12OC(C)=O [PMA, phorbol myristate acetate]
PKC1 [1]
  Stimulation of PKC1 by cofactor: No additional stimulation

## GST-Rho1: recombinant glutathione-S-transferase-Rho1 fusion purified from Sf9 insect cells
1,3-β-glucan synthase
  Restoration of GS activity: restored fully
PKC1 [3]
  Stimulation of PKC1 activity by recombinant GTPase: did not stimulate PKC1 activity alone

## diacylglycerol [DAG]
PKC1 [1]
  Stimulation of PKC1 by cofactor: No additional stimulation

## echinocandin B
[2]
  Sensitivity of rho1 mutants to drug: hypersensitivity

## huRhoA: human RhoA GTPase, protein substrate
CaGGTase
  Km Values: Nor is human RhoA a substrate

## phosphatidylserine
PKC1 [1]
  Stimulation of PKC1 by cofactor: strongly activated
PKC1 [1]; in the presence of GTPγS-bound GST-Rho1, data not shown
  Concentration of PS that fully activated PKC1: ≤ 8 µg/mL
